Experiment [1] has as its target Lysine-specific demethylase 5B (Homo sapiens, UniProt Q9UGL1). Description: The reaction mixture was incubated at room temperature for 30 minutes, and terminated by the addition of 6 μl of 5 mM EDTA in LANCE detection buffer containing 50 nM Phycolink Streptavidin-allophycocyanin and 2 nM Europium-anti-H3K4me1-2 antibody. A general note: In TR-FRET formats the signal depends on donor and acceptor labels being close together.

Experiment [2] addresses Lysine-specific demethylase 5A (Homo sapiens, UniProt P29375). Description: Enzymatic Assay: The enzymatic assay of Jarid1A activity is based upon Time Resolved-Fluorescence Resonance Energy Transfer (TR-FRET) detection. […] The reaction mixture was incubated at room temperature for 30 minutes, and terminated by the addition of 6 μl of 5 mM EDTA in LANCE detection buffer containing 50 nM Phycolink Streptavidin-allophycocyanin and 2 nM Europium-anti-H3K4me1-2 antibody.

As usually defined, the IC50 is the concentration that inhibits the measured activity by half.

Sequence of Lysine-specific demethylase 5B (Q9UGL1 whole entry): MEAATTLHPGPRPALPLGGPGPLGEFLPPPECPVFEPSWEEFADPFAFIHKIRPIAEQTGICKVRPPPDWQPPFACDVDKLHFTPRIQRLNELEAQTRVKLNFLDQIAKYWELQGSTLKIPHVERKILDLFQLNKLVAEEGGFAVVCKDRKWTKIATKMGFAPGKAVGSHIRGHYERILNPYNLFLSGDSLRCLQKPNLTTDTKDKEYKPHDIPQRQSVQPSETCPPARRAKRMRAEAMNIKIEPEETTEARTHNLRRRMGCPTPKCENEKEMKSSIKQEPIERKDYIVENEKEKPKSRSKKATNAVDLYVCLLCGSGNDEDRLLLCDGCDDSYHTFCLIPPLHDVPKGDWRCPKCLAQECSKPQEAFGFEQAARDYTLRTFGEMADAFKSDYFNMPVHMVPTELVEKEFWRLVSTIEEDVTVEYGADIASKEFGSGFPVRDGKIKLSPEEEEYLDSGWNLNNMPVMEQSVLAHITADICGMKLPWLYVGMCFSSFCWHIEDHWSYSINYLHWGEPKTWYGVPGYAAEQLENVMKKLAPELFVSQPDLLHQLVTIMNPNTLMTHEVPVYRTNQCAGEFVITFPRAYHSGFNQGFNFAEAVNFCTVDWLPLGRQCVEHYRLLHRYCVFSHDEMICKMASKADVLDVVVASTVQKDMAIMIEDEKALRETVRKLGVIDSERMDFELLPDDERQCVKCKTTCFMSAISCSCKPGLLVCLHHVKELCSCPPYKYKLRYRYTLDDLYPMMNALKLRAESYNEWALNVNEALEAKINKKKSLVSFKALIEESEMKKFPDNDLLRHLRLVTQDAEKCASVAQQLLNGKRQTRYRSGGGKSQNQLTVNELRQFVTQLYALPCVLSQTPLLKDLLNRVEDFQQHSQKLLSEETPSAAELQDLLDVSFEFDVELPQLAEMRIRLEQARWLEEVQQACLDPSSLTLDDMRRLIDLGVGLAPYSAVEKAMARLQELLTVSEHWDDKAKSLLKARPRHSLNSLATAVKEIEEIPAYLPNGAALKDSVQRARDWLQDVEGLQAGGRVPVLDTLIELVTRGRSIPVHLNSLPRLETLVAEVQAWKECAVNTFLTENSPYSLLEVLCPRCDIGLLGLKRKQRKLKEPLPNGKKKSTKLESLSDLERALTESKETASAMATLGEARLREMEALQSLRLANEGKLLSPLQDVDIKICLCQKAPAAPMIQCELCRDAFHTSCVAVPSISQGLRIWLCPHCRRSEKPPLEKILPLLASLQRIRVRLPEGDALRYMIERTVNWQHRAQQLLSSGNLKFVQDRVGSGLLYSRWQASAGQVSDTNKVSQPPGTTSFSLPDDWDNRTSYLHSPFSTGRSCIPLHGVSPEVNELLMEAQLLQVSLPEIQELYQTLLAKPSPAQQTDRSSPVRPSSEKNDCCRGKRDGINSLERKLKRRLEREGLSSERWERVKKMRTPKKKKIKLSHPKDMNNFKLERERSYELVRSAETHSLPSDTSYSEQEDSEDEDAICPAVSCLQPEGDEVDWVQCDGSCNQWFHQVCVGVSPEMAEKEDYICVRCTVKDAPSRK
Sequence of Lysine-specific demethylase 5A (P29375 whole entry): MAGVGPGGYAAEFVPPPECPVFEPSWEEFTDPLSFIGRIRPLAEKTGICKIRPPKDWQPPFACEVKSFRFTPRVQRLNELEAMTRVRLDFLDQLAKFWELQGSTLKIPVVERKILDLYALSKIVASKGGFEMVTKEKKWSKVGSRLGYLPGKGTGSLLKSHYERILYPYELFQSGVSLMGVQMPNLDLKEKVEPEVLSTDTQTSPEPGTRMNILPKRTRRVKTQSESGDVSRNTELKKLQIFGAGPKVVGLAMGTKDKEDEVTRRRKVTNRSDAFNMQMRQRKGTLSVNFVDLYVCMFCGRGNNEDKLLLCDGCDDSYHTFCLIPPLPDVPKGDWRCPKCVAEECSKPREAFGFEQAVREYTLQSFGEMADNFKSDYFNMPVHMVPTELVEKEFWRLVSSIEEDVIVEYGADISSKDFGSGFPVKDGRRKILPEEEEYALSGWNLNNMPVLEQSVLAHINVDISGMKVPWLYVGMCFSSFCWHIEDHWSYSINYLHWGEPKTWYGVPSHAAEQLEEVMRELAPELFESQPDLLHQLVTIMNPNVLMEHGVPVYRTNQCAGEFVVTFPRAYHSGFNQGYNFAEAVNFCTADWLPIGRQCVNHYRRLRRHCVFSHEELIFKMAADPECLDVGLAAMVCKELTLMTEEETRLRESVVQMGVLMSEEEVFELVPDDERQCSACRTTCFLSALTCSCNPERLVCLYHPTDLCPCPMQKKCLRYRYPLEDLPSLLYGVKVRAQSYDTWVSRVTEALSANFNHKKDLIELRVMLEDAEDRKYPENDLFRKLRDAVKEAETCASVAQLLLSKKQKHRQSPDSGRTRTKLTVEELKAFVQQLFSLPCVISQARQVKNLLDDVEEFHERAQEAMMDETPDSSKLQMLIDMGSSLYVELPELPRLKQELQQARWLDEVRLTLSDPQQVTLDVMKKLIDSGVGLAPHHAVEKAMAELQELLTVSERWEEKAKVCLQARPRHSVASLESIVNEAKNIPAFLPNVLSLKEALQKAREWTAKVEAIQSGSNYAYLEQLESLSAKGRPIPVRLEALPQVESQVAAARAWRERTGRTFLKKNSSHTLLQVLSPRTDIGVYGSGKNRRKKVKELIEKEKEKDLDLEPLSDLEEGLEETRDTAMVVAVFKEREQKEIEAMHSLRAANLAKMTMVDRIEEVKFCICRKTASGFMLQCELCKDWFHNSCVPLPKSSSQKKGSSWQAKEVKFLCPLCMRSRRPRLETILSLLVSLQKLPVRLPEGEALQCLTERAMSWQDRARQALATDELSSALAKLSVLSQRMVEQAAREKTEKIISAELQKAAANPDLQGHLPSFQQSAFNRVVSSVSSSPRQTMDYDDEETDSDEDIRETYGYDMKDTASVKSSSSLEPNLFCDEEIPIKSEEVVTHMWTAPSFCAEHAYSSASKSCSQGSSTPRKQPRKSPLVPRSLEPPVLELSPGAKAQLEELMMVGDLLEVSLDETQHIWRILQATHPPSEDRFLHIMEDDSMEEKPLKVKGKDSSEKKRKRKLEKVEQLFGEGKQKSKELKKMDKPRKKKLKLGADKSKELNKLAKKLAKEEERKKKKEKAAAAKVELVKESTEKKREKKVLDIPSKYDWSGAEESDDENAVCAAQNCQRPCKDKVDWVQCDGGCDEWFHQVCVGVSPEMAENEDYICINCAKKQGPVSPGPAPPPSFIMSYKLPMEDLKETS

As for `CCCn1nc(Nc2cnccc2C(=O)O)c2cccc(C)c21`, the IC50 in experiment [1] and in experiment [2] was under 100 nM throughout.

The values above are taken from ChEMBL document CHEMBL5726107, “Histone demethylase inhibitors” (2017).
